Tests used:
[1] = tested on: patients with symptomatic heart failure; experiment: Spironolactone dose-ranging clinical trial (12 weeks, added to ACE inhibitor, loop diuretic, optional digitalis)
hypertensive patients = settings: cited from earlier work
[2] = tested on: patients afflicted with congestive heart failure; settings: coadministered with an ACE inhibitor; cited from earlier work
hypertensive-rat cohort = settings: sub-cutaneously; hypertensive rats; cited from earlier work
[3] = tested on: myocardial fibrosis in animal models; settings: cited from earlier work

| SMILES | Likelihood of hyperkalemia on captopril vs another ACE-I ([1]; background ACE-I) | Plasma aldosterone despite continued ACE inhibition (hypertensive patients) | Patients in whom highly effective [2] | Mean systolic and diastolic blood pressure (standing and supine) ([1]; 25 mg, 50 mg and 75 mg groups, all visits) | Change from baseline in body weight ([1]; 75 mg dose group, Day 9 and Week 4) | Change from baseline in PRA, dose-response ([1]; Day 9, Week 4 and Week 12 (P≦0.001)) | Change from baseline in serum magnesium ([1]; Day 9 and Week 4 (p≦0.048), not at later visits) | Change from baseline in supine pulse, dose response ([1]; Week 4 (p-value=0.045)) | Hematocrit and hemoglobin vs placebo ([1]; Week 12 (p=0.002; 0.005)) | Urinary aldosterone excretion, dose response ([1]; Week 12 vs baseline (p=0.002)) | N-Terminal Atrial Natriuretic Factor (ANF) change ([1]; all active treatments, Day 9, Week 4, Week 12) | Deaths during the drug treatment period ([1]; all doses, 12 weeks) | Change from baseline in serum potassium, dose-response ([1]; all treatment period visits (p<0.001)) | Hyperkalemia adverse event, dose-response of incidence ([1]; p=0.001) | Patients who died within 30 days after the study was completed ([1]; previously at the 50 mg dose) | NYHA Class improvement ([1]; vs placebo, not statistically significant) | Fibrosis (hypertensive-rat cohort) | Myocardial fibrosis [3] |
| --- | --- | --- | --- | --- | --- | --- | --- | --- | --- | --- | --- | --- | --- | --- | --- | --- | --- | --- |
| C[C@H](CS)C(=O)N1CCC[C@H]1C(=O)O [Captopril, captopril] | about one-third as likely to develop hyperkalemia | gradual return of plasma aldosterone to baseline levels | – | – | – | – | – | – | – | – | – | – | – | – | – | – | – | – |
| CC(=O)S[C@@H]1CC2=CC(=O)CC[C@]2(C)[C@H]2CC[C@@]3(C)[C@@H](CC[C@@]34CCC(=O)O4)[C@H]12 [Spironolactone, 17-hydroxy-7α-mercapto-3-oxo-17α-pregn-4-ene-21-carboxylic acid γ-lactone acetate] | – | – | 13 of 16 | decreases in mean systolic and diastolic blood pressure | more weight loss than other patients | higher doses of spironolactone associated with greater increases in PRA | statistically significant dose-response | greater decreases in pulse in the supine position at higher doses | lower levels for the active treatment groups | Greater increases were seen at higher doses of spironolactone | decreases from baseline at all treatment visits | No deaths | Higher doses of spironolactone were associated with larger increases in potassium | clear dose-response in term of incidence | Three | trend toward improvement | prevent fibrosis in the hypertensive-rat cohort | prevents myocardial fibrosis in animal models |

From US20030144213A1, “Combination therapy of angiotensin converting enzyme inhibitor, side-effect reduced amount of aldosterone antagonist and diuretic for treatment of cardiovascular disease” (G.D. Searle & Co., priority 1996, published 2003)
